Like-named read-outs stand apart in the source and are kept apart here.
Key:
CXCR-2 = target: T1, CXCR-2 (Homo sapiens, UniProt P25025); conditions: in vitro; cited from earlier work
T1 sequence (P25025 1-360): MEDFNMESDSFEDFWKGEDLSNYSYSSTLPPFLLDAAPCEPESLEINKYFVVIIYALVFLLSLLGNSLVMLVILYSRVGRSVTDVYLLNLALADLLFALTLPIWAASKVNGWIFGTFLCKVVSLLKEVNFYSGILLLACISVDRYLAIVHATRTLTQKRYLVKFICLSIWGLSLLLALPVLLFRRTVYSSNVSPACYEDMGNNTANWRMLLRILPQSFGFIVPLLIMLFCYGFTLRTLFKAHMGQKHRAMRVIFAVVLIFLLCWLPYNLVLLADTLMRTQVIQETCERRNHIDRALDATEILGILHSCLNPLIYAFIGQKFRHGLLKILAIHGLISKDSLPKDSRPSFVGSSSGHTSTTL

[1] = dog; cited from earlier work
[2] = cited from earlier work
[3] = rat; cited from earlier work
[4] = in vivo; cited from earlier work
[5] = cited from earlier work; remark: listed apart in the source
[6] = tested on: rat air pouch model of crystal-induced arthropathy (MSU); assay: Rat air pouch model, Example 9 (Compound 4 in combination with colchicine); format: in vivo
Protocol: Sodium hydroxide (40 g, Fisher Scientific) was dissolved in de-ionized water (100 mL, dH2O) to provide a 10N solution. […] The resulting clear solution was cooled to 4-8° C., resulting in the formation of crystals, which were isolated by filtration, washed three times with de-ionized wa[…]) and dried at 37° C. The dried mono sodium urate crystals were sifted into an air-tight container for storage. […] Methylcellulose (0.4 g, Sigma) was dissolved in de-ionized water (100 mL) to provide a 0.4% solution used as vehicle. […] Test compounds were suspended in vehicle to provide the desired concentrations, and diluted accordingly. […] The animals were in apparent good health with no clinical signs of disease or distress. The rats were placed in quarantine with daily inspections, ear notched for identification purposes and shaved at the nape of the neck. The rats were anesthetized (isoflurane), and the nape of the neck was cleansed with 70% isopropanol (Butler Animal Health Supply) followed by povidone-iodine solution (Ricca Chemical Co.). Sterile air (30 mL, 0.2 μm, Millipore) was injected subcutaneously using a 23 G×11⁄2 inch needle fixed to a 30 mL syringe. The rats were returned to routine housing with no adverse reactions observed. The rats were anesthetized (isoflurane), and the nape of the neck was cleansed with 70% isopropanol (Butler Animal Health Supply) followed by povidone-iodine solution (Ricca Chemical Co.). Sterile air (15 mL, 0.11 μm, Millipore) was injected subcutaneously using a 23 G×11⁄2 inch needle fixed to a 20 mL syringe. The rats were returned to routine housing with no adverse reactions observed. The rats were weighed and sorted into treatment groups based on average body weight. As appropriate, the rats were dosed orally with test compound or vehicle (saline alone). […] Thirty minutes after SC injection or two hours after PO dosing, MSU (15 mL) was injected into the air pouch using an 18 G×2 inch needle fitted to a 20 mL syringe. Control group was injected with 15 mL sterile saline (vehicle). The injection sites were closed (collodion, Macron) and the rats returned to their cages with no adverse effects observed. Four hours after MSU/saline injection, the rats were anesthetized and heparinized saline (5 mL, 10 U/mL) was injected into the air pouch. […] An aliquot of the exudate was transferred to green Eppendorf tubes for total white blood cell (WBC) measurement. After allowing the MSU crystals to settle out for ten minutes, an aliquot of the exudate was transferred to heparinized microtainer tubes (Becton Dickinson) for differential white blood cell counts. The remainder of the exudate was centrifuged and an aliquot of the supernatants was dispensed to labeled clear Eppendorf tubes and stored at -80° C. The rats were exsanguinated into pre-chilled serum separator tubes, processed to serum, and 0.5 mL aliquot was stored at -80° C. in labeled Eppendorf tubes. […] [table]

PBMCs = assay: Cell migration (chemotaxis) assay, PBMC counts; format: cell-based; conditions: 10 μM; MSU crystal conditioned media; FIG. 1B
Protocol: Primary blood monocytes (PMBC) were obtained from the lymphocyte layer (buffy coat) of peripheral blood from normal donors. Each leukopack (Interstate Blood Bank) was diluted with an equal volume of PBS, and 35 mL of blood preparation was over-laid onto 15 mL of Ficoll-Paque™ PLUS (GE Healthcare Bio-Sciences). Tubes were centrifuged at 700×g without breaks for 30 minutes at room temperature. The buffy coat interface was removed, added to PBS (40 mL), and centrifuged at 300×g. Any remaining erythrocytes in the cell pellet were lysed by incubating cells in red blood cell lysis buffer (10 mL, R&D Systems) for 10 minutes at room temperature. Following lysis, PBS (40 mL) was added and the cells centrifuged for 5 minutes at 200×g. The pellet was washed once with PBS and re-suspended in complete RPMI and seeded onto a BD Falcon™ 100 mm tissue culture dish (Cat. No. 353003). After one hour, the media was aspirated and the adherent cells (predominantly monocytes) were harvested using a cell scraper and used in chemotaxis assays. Chemotaxis was assayed in 48-well plates with BD Falcon FluoroBlok Multiwell inserts with 3 μm pores (Cat. No. 351161 or 351162) coated with hFN. […] Fluorescence emitted from cells that had migrated to the bottom surface of the insert was measured at various time points. Cells labeled with Calcein AM were read at 485/530 nm (Ex/Em) wavelength. […]

neutrophils = assay: Cell migration (chemotaxis) assay, neutrophil counts; format: cell-based; conditions: 10 μM; MSU-conditioned media; FIG. 1A
[7] = 10 umol/kg PO + Colchicine 0.3 mpk SC, Group 10

## C[C@@H](Oc1cc(NS(=O)(=O)N2CCC2)nc(SCc2cccc(F)c2F)n1)[C@@H](O)CO [Compound 3, N-(2-((2,3-difluorobenzyl)thio)-6-(((2R,3S)-3,4-dihydroxybutan-2-yl)oxy)pyrimidin-4-yl)azetidine-1-sulfonamide]
CXCR-2
  potency: high
[1]
  half-life: long
[2]
  solubility properties: good
[3]
  bioavailability: 49%

## COc1cc2c(c(OC)c1OC)-c1ccc(OC)c(=O)cc1[C@@H](NC(C)=O)CC2 [Colchicine, COLCHICINE, reference compound]
[4]
  eliminated unchanged in the urine: 10-20%
[5]; lower dose regimen: 1.2 mg at onset of acute gout attack, then 0.6 mg after one hour
  gastrointestinal side effects: 24%
[5]; standard dose regimen: 1.2 mg at onset of acute gout attack, then 0.6 mg every hour for 6 hours
  gastrointestinal side effects: 73%
[5]; standard dose regimen
  Severe diarrhea, % of patients: 19%
  vomiting, % of patients: 15%
[6]; 0.3 mpk SC, Group 3
  Avg Exudate Vol: 12.4 mL
  Avg Tot WBC: 120 ×10^6
  Neutrophils: 101.9 ×10^6
[6]; 0.5 mpk SC, Group 4
  Avg Exudate Vol: 8.8 mL
  Avg Tot WBC: 58 ×10^6
  Neutrophils: 42.7 ×10^6
[6]; 1.0 mpk SC, Group 5
  Avg Exudate Vol: 5.6 mL
  Avg Tot WBC: 16 ×10^6
  Neutrophils: 9.8 ×10^6

## CC[C@@H](Nc1c(Nc2cccc(C(=O)N(C)C)c2O)c(=O)c1=O)c1ccc(C)o1 [Compound 2, (R)-2-hydroxy-N,N-dimethyl-3-((2-((1-(5-methylfuran-2-yl)propyl)amino)-3,4-dioxocyclobut-1-en-1-yl)amino)benzamide]
PBMCs
  inhibition in migration in PBMCs: significant inhibition in migration
neutrophils
  inhibition of migration in neutrophils: significant inhibition of migration

## CC1CN(S(=O)(=O)Nc2cc(O[C@H](C)[C@@H](O)CO)nc(SCc3ccc(F)cc3)n2)C1 [Compound 4, N-(6-(((2R,3S)-3,4-dihydroxybutan-2-yl)oxy)-2-((4-fluorobenzyl)thio)pyrimidin-4-yl)-3-methylazetidine-1-sulfonamide]
[6]; [7]
  Avg Exudate Vol: 7.8 mL
  Avg Tot WBC: 20 ×10^6
  Neutrophils: 6.4 ×10^6
[6]; 10.0 umol/kg PO, Group 6
  Avg Exudate Vol: 12.5 mL
  Avg Tot WBC: 160 ×10^6
  Neutrophils: 102.1 ×10^6
[6]; 30.0 umol/kg PO, Group 7
  Avg Exudate Vol: 6.7 mL
  Avg Tot WBC: 28.7 ×10^6
  Neutrophils: 14 ×10^6
[6]; 100 umol/kg PO, Group 8
  Avg Exudate Vol: 6 mL
  Avg Tot WBC: 12 ×10^6
  Neutrophils: 3.8 ×10^6
[6]; 300 umol/kg PO, Group 9
  Avg Exudate Vol: 5.2 mL
  Avg Tot WBC: 8.1 ×10^6
  Neutrophils: 4.3 ×10^6

Reference: patent US10772886B2, “CXCR-2 inhibitors for treating crystal arthropathy disorders” (ARDEA BIOSCIENCES, INC., priority 2016, dated 2020)
